# Where two headings read alike, the source gives them in different places.
# How the values were obtained:
# [1] = tested on: M2 macrophages; test: Anti-cell viability screening: reduction of M2 macrophage cell viability (Percentage Relative Cell Viability versus Log Molar Concentration); type: cell-based; details: for IC50: Macrophage
# Description: Assays were conducted in a 96-well black solid-bottom plate with a final assay volume of 100 μL.
# [2] = tested on: M2 polarized macrophages with intact CD206 (wild type) versus isogenic M2 polarized macrophages lacking the CD206 receptor; test: Cell viability in M2 polarized macrophages with intact CD206 versus isogenic macrophages lacking CD206; type: cell-based
# [3] = Pharmacokinetics (PK) profile, plasma concentration versus time; type: in vivo
# [4] = biological target: T1, recombinant human CD206 protein (UniProt ID P22897-1) (Homo sapiens, UniProt P22897); test: Electron microscopy of recombinant CD206 incubated with compound, particles scored closed versus open; type: binding; details: 30 minutes at 1 μM
# T1 sequence (P22897 19-1456): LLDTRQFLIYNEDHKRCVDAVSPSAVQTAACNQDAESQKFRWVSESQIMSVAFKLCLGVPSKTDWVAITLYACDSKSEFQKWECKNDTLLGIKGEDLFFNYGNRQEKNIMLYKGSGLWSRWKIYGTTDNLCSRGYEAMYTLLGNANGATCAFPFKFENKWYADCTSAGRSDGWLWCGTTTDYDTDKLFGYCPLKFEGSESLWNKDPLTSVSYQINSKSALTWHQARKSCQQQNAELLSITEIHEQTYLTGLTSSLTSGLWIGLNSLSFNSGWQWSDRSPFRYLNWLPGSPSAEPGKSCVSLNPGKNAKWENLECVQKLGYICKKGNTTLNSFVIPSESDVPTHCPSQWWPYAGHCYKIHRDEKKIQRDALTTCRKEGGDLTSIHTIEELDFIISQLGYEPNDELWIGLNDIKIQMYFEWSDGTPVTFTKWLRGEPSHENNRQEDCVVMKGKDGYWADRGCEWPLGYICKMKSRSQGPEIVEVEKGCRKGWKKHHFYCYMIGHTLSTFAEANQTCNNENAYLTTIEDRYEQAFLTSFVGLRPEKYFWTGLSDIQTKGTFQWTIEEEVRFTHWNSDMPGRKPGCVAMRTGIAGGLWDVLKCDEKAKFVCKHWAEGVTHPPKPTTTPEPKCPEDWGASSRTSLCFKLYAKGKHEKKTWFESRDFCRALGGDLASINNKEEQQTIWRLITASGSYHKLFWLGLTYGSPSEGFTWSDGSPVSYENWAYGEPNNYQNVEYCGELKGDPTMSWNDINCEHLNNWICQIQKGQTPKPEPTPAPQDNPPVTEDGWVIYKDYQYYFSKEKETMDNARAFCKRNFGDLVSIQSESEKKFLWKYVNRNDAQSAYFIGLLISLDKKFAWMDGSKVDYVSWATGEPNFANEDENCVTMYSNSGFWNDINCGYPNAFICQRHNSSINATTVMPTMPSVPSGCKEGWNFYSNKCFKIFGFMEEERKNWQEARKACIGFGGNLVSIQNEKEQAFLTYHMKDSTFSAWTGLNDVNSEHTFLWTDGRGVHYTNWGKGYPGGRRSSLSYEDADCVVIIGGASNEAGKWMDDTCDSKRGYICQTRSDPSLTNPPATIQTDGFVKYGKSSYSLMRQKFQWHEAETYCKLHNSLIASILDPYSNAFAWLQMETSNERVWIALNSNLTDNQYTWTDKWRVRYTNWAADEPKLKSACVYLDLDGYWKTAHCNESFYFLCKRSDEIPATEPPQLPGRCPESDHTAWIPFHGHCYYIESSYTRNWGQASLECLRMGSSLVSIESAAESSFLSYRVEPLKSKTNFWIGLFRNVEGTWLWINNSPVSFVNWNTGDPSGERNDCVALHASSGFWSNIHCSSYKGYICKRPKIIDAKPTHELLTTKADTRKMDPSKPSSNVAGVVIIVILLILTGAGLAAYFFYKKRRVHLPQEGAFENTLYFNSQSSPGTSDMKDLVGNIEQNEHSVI
# Description: FIGS. 11A and 11B illustrate conformational change on CD206 when incubated with Compound 1.
# [5] = tested on: Kras(G12D)/Trp53(R172H)/Pdx-1-Cre (KPC) mice (murine pancreatic cancer model); test: In vivo testing in transgenic KPC mice, tumor growth; details: compared to vehicle
# Excerpt: Tumor growth was suppressed during in vivo testing of Compound 1 in fully immune-competent transgenic Kras(G12D)/Trp53(R172H)/Pdx-1-Cre (KPC) mice (murine pancreatic cancer model) compared to vehicle as shown in FIG. 3B. This point was further illustrated in FIGS. 3A and 3C where comparison of tumor volume for mice treated with Compound-1 and untreated mice (vehicle) is shown.
# [6] = tested on: KPC tumors; test: Quantitative flow cytometry of autochthonous KPC tumors (intratumoral immune landscape); type: in vivo, mice
# [7] = tested on: KPC allograft tumors grown in C57BL/6 mice; test: M2 macrophages adaptive transfer study in KPC allograft model; type: in vivo; details: intratumoral injections 3 times a week, compared to vehicle
# [8] = tested on: murine M1 macrophages and M2 macrophages; test: Induction of phagocytosis, autophagy and apoptosis in bone marrow derived macrophages (BMDM), M1 versus M2, relative fluorescence; type: cell-based
# Excerpt: (§1) Induction of phagocytosis, autophagy, and apoptosis was studied in two in vitro models using M1 and M2 macrophages. […] FIGS. 12A to 12E illustrate this selectivity. […] FIGS. 13A to 13C illustrate this selectivity
# [9] = tested on: RAW264.7 macrophages polarized into M1 and M2; test: Induction of phagocytosis, autophagy and apoptosis in RAW264.7 macrophages polarized into M1 and M2; type: cell-based, murine
# Excerpt: as §1
# [10] = tested on: M2 macrophages; test: Cancer cell phagocytosis by M1 and M2 macrophages, relative quantitative fluorescence; type: cell-based; details: M2 versus M1 macrophages
# Excerpt: FIGS. 14A to 14B illustrate this selectivity towards M2 macrophages.
# [11] = tested on: human CD206^high M2 macrophages; test: Cell viability assay of human macrophages; type: cell-based; details: derived from healthy volunteers, compared to M1-like macrophages
# Excerpt: (§2) Similar selectivity is observed in dendritic cell DC2.4 viability (FIG. 9B), fibroblast HTT viability (FIG. 9C), RAW cell viability (FIG. 9D), and KPC viability (FIG. 9E).
# [12] = tested on: CD206 negative control cell lines (DC2.4, fibroblast HTT, non-polarized RAW264.7, KPC cancer cells); test: Cell viability in a panel of CD206 negative control cell lines; type: cell-based
# Excerpt: as §2
# [13] = tested on: murine M2 macrophages; test: M1 markers in murine M2 macrophages by quantitative flow cytometry; type: cell-based; details: 20 μM for 2 hours
# [14] = CD11b+F4/80+Gr-1 negative cells
compound,measurement,setting,value
"O=C(NCCc1cnc[nH]1)c1ccc(-c2ncc3cnc(-c4ccccc4)cn23)cc1 [Compound 1, N-(2-(1H-imidazol-5-yl)ethyl)-4-(6-phenylimidazo[1,5-a]pyrazin-3-yl)benzamide]",IC50,"[1]; Table 2, read-out: IC50",2860 nM
same,IC50,"[1]; figure legends and text, read-out: IC50, macrophage activity (Percentage Relative Cell Viability versus Log Molar Concentration) (converted)",2860 nM
same,M2 Selectivity,[1]; Table 2,Yes
same,CD206 dependence of macrophage activity,[2],CD206 dependent
same,concentration at 0.157 h,"[3]; IP (intraperitoneal), 20 mg/kg",7890 nM
same,concentration at 0.5 h,"[3]; IP (intraperitoneal), 20 mg/kg",7600 nM
same,concentration at 1 h,"[3]; IP (intraperitoneal), 20 mg/kg",11100 nM
same,concentration at 1.5 h,"[3]; IP (intraperitoneal), 20 mg/kg",12800 nM
same,concentration at 2 h,"[3]; IP (intraperitoneal), 20 mg/kg",5840 nM
same,concentration at 4 h,"[3]; IP (intraperitoneal), 20 mg/kg",3020 nM
same,concentration at 7 h,"[3]; IP (intraperitoneal), 20 mg/kg, 7.0 h",540 nM
same,concentration at 0.157 h,"[3]; PO (Per Os, oral), 30 mg/kg",11 nM
same,concentration at 0.5 h,"[3]; PO (Per Os, oral), 30 mg/kg",16 nM
same,concentration at 1 h,"[3]; PO (Per Os, oral), 30 mg/kg",23 nM
same,concentration at 1.5 h,"[3]; PO (Per Os, oral), 30 mg/kg",190 nM
same,concentration at 2 h,"[3]; PO (Per Os, oral), 30 mg/kg",163 nM
same,concentration at 4 h,"[3]; PO (Per Os, oral), 30 mg/kg",11 nM
same,PK profile,"[3]; liver, and pancreas, oral and IP injection",excellent PK profile
same,CD206 particles in a closed state,[4],48%
same,CD206 particles in open state,[4],52%
same,binding to CD206 and conformation of the receptor,[4],binds to CD206 and induces a conformational switch of the receptor
same,binding to CD206 and conformation of the receptor,[4]; listed as Example 38,induces the closed conformation of the CD206 receptor
same,Tumor growth,[5],suppressed
same,CD206 positive cells within tumor associated macrophage population,[6]; [14],reduction of CD206 positive cells
same,Signal regulatory protein α (SIRPα) of tumor associated macrophages,[6]; [14],reduction of the innate checkpoint Signal regulatory protein α (SIRPα)
same,CD206 macrophages in tumors (percent positive cell fractions of total cells),[6]; compared to vehicle,reduction of CD206 macrophages
same,M2 to M1 macrophage shift in tumors,[6]; compared to vehicle,shift from CD206^high M2 to CD86-positive M1 macrophages
same,intratumoral CD8 cells,[6]; compared to vehicle,increase in intratumoral CD8 cells
same,M1 markers in intratumoral M1 and M2 macrophage populations,"[6]; treatment for three weeks in KPC mice, compared to vehicle",induction of M1 markers
same,Tumor growth after intratumoral injection of pretreated M2 macrophages,[7],reduction of tumor
same,"selectivity to induce phagocytosis, autophagy, and apoptosis",[8]; BMDM in vitro model,"excellent selectivity to induce phagocytosis, autophagy, and apoptosis in M2 but not in M1 macrophages"
same,induction of apoptosis,[8]; M1 versus M2,induces apoptosis in M2 but not in M1 macrophages
same,induction of autophagy,[8]; M1 versus M2,induces autophagy in M2 but not in M1 macrophages
same,induction of early phagocytosis,[8]; M1 versus M2,induces early phagocytosis in M2 but not in M1 macrophages
same,induction of phagocytosis,[8]; M1 versus M2,induces phagocytosis in M2 but not in M1 macrophages
same,induction of phagolysosome formation,[8]; M1 versus M2,induces phagolysosome formation in M2 but not in M1 macrophages
same,dose response in induction of phagocytosis,[8]; murine M2 macrophages treated for 24 hours,full dose response
same,"selectivity to induce phagocytosis, autophagy, and apoptosis",[9]; RAW264.7 cell in vitro model,"excellent selectivity to induce phagocytosis, autophagy, and apoptosis in M2 but not in M1 macrophages"
same,induction of apoptosis,[9]; compared to vehicle,induces apoptosis in M2 macrophages
same,induction of autophagy,[9]; compared to vehicle,induces autophagy in M2 macrophages
same,induction of phagocytosis,[9]; compared to vehicle,induces phagocytosis in M2 macrophages
same,cancer cell phagocytosis,[10],increases cancer cell phagocytosis in M2 but not in M1 macrophages
same,activity in human CD206^high M2 macrophages,[11],active
same,selectivity versus CD206 negative control cell lines,[12],selective for the CD206^high M2 macrophages
same,M1 markers (percent positive cell fractions),[13],induction of M1 markers in M2 macrophages
